Test [1] has as its target T1, PI3K-α (PIK3CA) wild-type (WT), p110α/p85α complex (Homo sapiens, UniProt P42336).
T1 construct: Recombinant, catalytically active human full length PIK3KA Wild-type and H1047R mutant; 6×His (N); purchased EMD Millipore Sigma 14-602M
As to the kind of experiment: PI3K-alpha kinase (PIK3CA) biochemical activity, ADP-Glo, wild-type. The conditions noted are these: Soy PI lipid substrate. The source says:
(§1) PI3K-Alpha Kinase (PIK3CA) Activity, Wild-Type and H1047R Mutant and Determining IC50 Values for Inhibitors
(§2) Recombinant, catalytically active human full length PIK3KA Wild-type and H1047R mutant were purchased as 1:1 complex of N-terminal 6×his tagged p110α (catalytic) and untagged p85α (regulatory subunit) from EMD Millipore Sigma (cat. no. 14-602M and 14-792M, respectively). PIP2diC8 (Avanti Polar Lipids Inc., cat. no. 850185) or Soy PI (Avanti Polar Lipids Inc., cat. No. 840044P) was used as lipid substrate. PIP2diC8 or PI lyophilized powder was dissolved in milliQ water to a concentration of 1 mM just before use. 10 mM stock compounds in DMSO were serially diluted 1:3 to generate a 10-point curve and plated using an acoustic liquid handler system (Echo 550 series instrument, Labcyte). A 10× intermediate compound plate (200 uM starting compound concentration and 10% DMSO) was prepared before starting the reaction. A typical reaction mixture (50 uL) comprised 40 mM HEPES buffer, pH 7.4, 25 mM MgCl2, 0.01% v/v triton-X-100, 1% v/v DMSO, 20 mM NaCl, 1-5 nM WT or H1047R PI3K protein, 20 uM ATP, and 50 uM PIP2diC8 or Soy PI. 1% DMSO buffer alone without test compound was employed as MAX control (full activity in the absence of any inhibitor), and no enzyme control was used to determine the level of background Adenosine 5′-diphosphate (ADP) (MIN control). First, Wild-type (WT) and H1047R mutant protein in kinase buffer with all components except ATP were incubated with or without compound at 27° C. for 1 h. After the pre-incubation, the reaction was initiated by the addition of 20 uL of 50 uM ATP (20 uM final concentration). The reaction was allowed to proceed until about 10% conversion of ATP (2 uM ADP) at 27° C. After that time, 5 uL of reaction was mixed with 5 uL of ADP-Kinase Glo Reagent (ADP-Glo Kinase assay kit, Promega cat. no. V9102) supplemented with MgCl2 10 mM to stop the reaction and deplete the remaining ATP for 40 min at room temperature. Then, 10 uL of Kinase Detection Reagent (ADP-Glo Kinase assay kit, Promega cat. no. V9102) was added to simultaneously convert ADP to ATP and allow the newly synthesized ATP to be measured using a luciferase/luciferin reaction. After 30 min at room temperature the light generated was measured using a luminometer (EnVision plate reader, Perkin Elmer). Process data through Genedata-Screener tool. Relative IC50 values are determined using luminescence units by calculating percent inhibition with respect to on-plate “MIN” and “MAX” controls. Data was analyzed using a 4-parameter nonlinear logistic equation (four-parameter logistic concentration-response curve): Y=bot+[(top−bot)/1+(x/IC50)slope] where Y=% inhibition, X=concentration yielding y % inhibition, Bottom=minimum value of y attained by curve, Top=maximum value of y attained by curve and Slope=steepness of curve at IC50. % Inh=[(median Max−x/median Max−median Min)]·100 IC50: concentration of compound that reduces a given response (ligand binding, enzyme response) by 50%. IC50 relative: concentration giving half the compound's maximum response.

Test [2] has as its target T2, PI3K-α (PIK3CA) H1047R mutant, p110α/p85α complex (Homo sapiens, UniProt P42336, H1047R).
T2 construct: Recombinant, catalytically active human full length PIK3KA Wild-type and H1047R mutant; 6×His (N); purchased EMD Millipore Sigma 14-792M
As to the kind of experiment: PI3K-alpha kinase (PIK3CA) biochemical activity, ADP-Glo, H1047R mutant. The conditions noted are these: Soy PI lipid substrate.
Excerpt: as §1, §2

The source of these data is patent US11878970B2, “Allosteric chromenone inhibitors of phosphoinositide 3-kinase (PI3K) for the treatment of disease” (Petra Pharma Corporation, priority 2021, dated 2024).

What is called IC50 is the concentration that inhibits the measured activity by half. Lower therefore signals higher potency.

T2 sequence (P42336 whole entry H1047R): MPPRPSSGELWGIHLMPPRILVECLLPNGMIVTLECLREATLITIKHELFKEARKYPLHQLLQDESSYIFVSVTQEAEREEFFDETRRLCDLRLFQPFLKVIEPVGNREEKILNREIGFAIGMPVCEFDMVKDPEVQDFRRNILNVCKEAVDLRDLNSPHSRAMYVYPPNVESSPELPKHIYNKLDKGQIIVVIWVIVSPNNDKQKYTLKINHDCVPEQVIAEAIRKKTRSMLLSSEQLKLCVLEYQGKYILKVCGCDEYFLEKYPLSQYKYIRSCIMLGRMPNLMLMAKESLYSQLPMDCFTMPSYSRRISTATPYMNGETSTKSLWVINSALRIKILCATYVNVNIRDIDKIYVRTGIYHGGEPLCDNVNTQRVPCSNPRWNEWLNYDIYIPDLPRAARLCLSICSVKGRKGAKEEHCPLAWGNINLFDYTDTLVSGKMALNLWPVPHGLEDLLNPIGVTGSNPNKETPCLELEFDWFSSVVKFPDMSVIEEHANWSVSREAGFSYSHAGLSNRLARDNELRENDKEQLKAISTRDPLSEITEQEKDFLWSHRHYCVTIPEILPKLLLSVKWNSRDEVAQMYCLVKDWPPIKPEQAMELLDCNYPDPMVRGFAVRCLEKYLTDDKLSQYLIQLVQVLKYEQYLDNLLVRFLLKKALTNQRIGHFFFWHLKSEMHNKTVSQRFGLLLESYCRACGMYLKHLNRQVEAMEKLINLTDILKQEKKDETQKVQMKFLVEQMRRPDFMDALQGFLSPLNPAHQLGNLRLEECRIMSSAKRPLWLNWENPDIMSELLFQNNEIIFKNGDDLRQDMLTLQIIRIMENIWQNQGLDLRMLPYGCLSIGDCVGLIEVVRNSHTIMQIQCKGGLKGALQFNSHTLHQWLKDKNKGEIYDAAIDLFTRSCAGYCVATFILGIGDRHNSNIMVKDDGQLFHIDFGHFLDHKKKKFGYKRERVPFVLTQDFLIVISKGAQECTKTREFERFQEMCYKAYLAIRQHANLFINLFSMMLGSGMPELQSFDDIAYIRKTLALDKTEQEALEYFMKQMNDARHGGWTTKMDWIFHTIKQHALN
T2 sequence (P27986 whole entry partner): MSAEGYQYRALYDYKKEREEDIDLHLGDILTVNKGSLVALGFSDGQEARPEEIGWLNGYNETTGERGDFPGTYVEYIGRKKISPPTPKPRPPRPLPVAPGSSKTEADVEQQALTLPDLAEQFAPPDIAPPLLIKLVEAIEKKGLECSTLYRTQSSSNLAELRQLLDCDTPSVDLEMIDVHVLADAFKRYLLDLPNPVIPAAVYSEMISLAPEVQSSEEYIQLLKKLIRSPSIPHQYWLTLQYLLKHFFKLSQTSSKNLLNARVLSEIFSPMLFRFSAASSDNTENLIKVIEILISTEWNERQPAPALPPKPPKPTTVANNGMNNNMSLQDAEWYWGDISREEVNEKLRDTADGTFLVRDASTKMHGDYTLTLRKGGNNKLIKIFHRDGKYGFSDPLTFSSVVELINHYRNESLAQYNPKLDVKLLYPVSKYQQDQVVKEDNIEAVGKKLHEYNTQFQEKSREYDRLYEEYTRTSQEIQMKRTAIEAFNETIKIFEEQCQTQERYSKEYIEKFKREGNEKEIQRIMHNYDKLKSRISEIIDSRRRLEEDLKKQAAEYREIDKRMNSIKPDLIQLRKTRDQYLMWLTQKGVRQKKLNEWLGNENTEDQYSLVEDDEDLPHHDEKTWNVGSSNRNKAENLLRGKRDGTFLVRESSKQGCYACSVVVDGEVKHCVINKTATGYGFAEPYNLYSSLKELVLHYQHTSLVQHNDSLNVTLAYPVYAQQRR

For `Cc1cc(C(C)Nc2ccccc2C(=O)O)c2oc(-c3ccc4nc(C)cn4n3)cc(=O)c2c1` (single isomer, unassigned) [Example 69, 2-[1-[6-Methyl-2-(2-methylimidazo[1,2-b]pyridazin-6-yl)-4-oxo-chromen-8-yl]ethylamino]benzoic acid], the figures for the IC50 in test [1] and in test [2] were 1 to 5 µM and less than 500 nM, respectively.

For `Cc1cc(C(C)Nc2ccccc2C(=O)O)c2oc(-c3nccc4cnn(C)c34)cc(=O)c2c1` (single isomer, unassigned) [Example 96, 2-[1-[6-Methyl-2-(1-methylpyrazolo[3,4-c]pyridin-7-yl)-4-oxo-chromen-8-yl]ethylamino]benzoic acid], the IC50 lay within 5 to 10 µM in test [1] and 1000 to 5000 nM in test [2].

In the case of `Cc1cc(C(C)Nc2ccccc2C(=O)O)c2oc(-c3ccc4cn[nH]c4n3)cc(=O)c2c1` (single isomer, unassigned) [Example 121, 2-[1-[6-Methyl-4-oxo-2-(1H-pyrazolo[3,4-b]pyridin-6-yl)chromen-8-yl]ethylamino]benzoic acid], the values for the IC50 in test [1] and in test [2] were 1 to 5 µM and less than 500 nM, respectively.

With `Cc1cc(C(C)Nc2ccccc2C(=O)O)c2oc(-c3ccc4nc(C)cn4c3)cc(=O)c2c1` (single isomer, unassigned) [Example 17, 2-[1-[6-Methyl-2-(2-methylimidazo[1,2-a]pyridin-6-yl)-4-oxo-chromen-8-yl]ethylamino]benzoic acid], the IC50 is 1 to 5 µM in test [1] and less than 500 nM in test [2].

Consider `Cc1cc(C(C)Nc2ccccc2C(=O)O)c2oc(-c3ccc4c(C#N)nn(C)c4c3)cc(=O)c2c1` (single isomer, unassigned) [Example 104, 2-[1-[2-(3-Cyano-1-methyl-indazol-6-yl)-6-methyl-4-oxo-chromen-8-yl]ethylamino]benzoic acid], for which the IC50 in test [1] is 1 to 5 µM; in test [2], less than 500 nM.

Turning to `Cc1cc(C(C)Nc2ccccc2C(=O)O)c2oc(-c3ccc4nn(C)cc4n3)c(C)c(=O)c2c1` (single isomer, unassigned) [Example 130, 2-[1-[3,6-Dimethyl-2-(2-methylpyrazolo[4,3-b]pyridin-5-yl)-4-oxo-chromen-8-yl]ethylamino]benzoic acid], the IC50 in test [1] is 0.5 to 1 µM; in test [2], less than 500 nM.

Regarding `Cc1cc(C(C)Nc2ccccc2C(=O)O)c2oc(-c3ccc4c(cnn4C)n3)c(C)c(=O)c2c1` (single isomer, unassigned) [Example 131, 2-[1-[3,6-Dimethyl-2-(1-methylpyrazolo[4,3-b]pyridin-5-yl)-4-oxo-chromen-8-yl]ethylamino]benzoic acid], the IC50 is 1 to 5 µM in test [1] and less than 500 nM in test [2].

In the case of `Cc1ccc2c(cnn2-c2cc(=O)c3cc(C)cc(C(C)Nc4ccccc4C(=O)O)c3o2)c1` (single isomer, unassigned) [Example 87, 2-[1-[6-Methyl-2-(5-methylindazol-1-yl)-4-oxo-chromen-8-yl]ethylamino]benzoic acid], the IC50 is 1 to 5 µM in test [1] and less than 500 nM in test [2].

On to `Cc1cc(C(C)Nc2ccccc2C(=O)O)c2oc(-c3cc4ccncc4o3)cc(=O)c2c1` (single isomer, unassigned) [Example 39, 2-[1-(2-Furo[2,3-c]pyridin-2-yl-6-methyl-4-oxo-chromen-8-yl)ethylamino]benzoic acid], for which the values for the IC50 in test [1] and in test [2] were 1 to 5 µM and less than 500 nM, respectively.

Take `Cc1cc(C(C)Nc2ccccc2C(=O)O)c2oc(-c3ccc4nn(C)cc4c3)c(C(F)(F)F)c(=O)c2c1` (single isomer, unassigned) [Example 208, 2-[1-[6-Methyl-2-(2-methylindazol-5-yl)-4-oxo-3-(trifluoromethyl)chromen-8-yl]ethylamino]benzoic acid]: the IC50 in test [1] was less than 0.5 µM; in test [2], less than 500 nM.

In the case of `Cc1cc(C(C)Nc2ccc(Cl)nc2C(=O)O)c2oc(-c3ccc4nc(C)cn4c3)cc(=O)c2c1` (single isomer, unassigned) [Example 179, 6-Chloro-3-[1-[6-methyl-2-(2-methylimidazo[1,2-a]pyridin-6-yl)-4-oxo-chromen-8-yl]ethylamino]pyridine-2-carboxylic acid], the IC50 is 5 to 10 µM in test [1] and 500 to 1000 nM in test [2].

`Cc1cc(C(C)Nc2ccccc2C(=O)O)c2oc(-c3ccc4cc(C)nn4c3)cc(=O)c2c1` (single isomer, unassigned) [Example 134, 2-[1-[6-Methyl-2-(2-methylpyrazolo[1,5-a]pyridin-6-yl)-4-oxo-chromen-8-yl]ethylamino]benzoic acid]: the figures for the IC50 in test [1] and in test [2] were 1 to 5 µM and less than 500 nM, respectively.

For the compound `CC(Nc1ccc(Cl)nc1C(=O)O)c1cc(C(F)(F)F)cc2c(=O)cc(-c3cc(Cl)c4nn(C)cc4c3)oc12` (centres unmarked) [Example 173, 6-Chloro-3-[1-[2-(7-chloro-2-methyl-indazol-5-yl)-4-oxo-6-(trifluoromethyl)chromen-8-yl]ethylamino]pyridine-2-carboxylic acid], the IC50 was more than 10 µM in test [1] and less than 500 nM in test [2].

For the compound `Cc1cc(C(C)Nc2ccccc2C(=O)O)c2oc(-c3ccn4cnnc4c3)cc(=O)c2c1` (single isomer, unassigned) [Example 161, 2-[1-[6-Methyl-4-oxo-2-([1,2,4]triazolo[4,3-a]pyridin-7-yl)chromen-8-yl]ethylamino]benzoic acid], the IC50 was more than 10 µM in test [1] and 500 to 1000 nM in test [2].

Regarding `Cc1cc(C(C)Nc2ccccc2C(=O)O)c2oc(-c3ccc4cncn4c3)cc(=O)c2c1` (single isomer, unassigned) [Example 79, 2-[1-(2-Imidazo[1,5-a]pyridin-6-yl-6-methyl-4-oxo-chromen-8-yl)ethylamino]benzoic acid], the IC50 in test [1] is 1 to 5 µM; in test [2], less than 500 nM.

For `Cc1cc(C(C)Nc2ccccc2C(=O)O)c2oc(-n3nnc4ccccc43)cc(=O)c2c1` (single isomer, unassigned) [Example 85, 2-[1-[2-(Benzotriazol-1-yl)-6-methyl-4-oxo-chromen-8-yl]ethylamino]benzoic acid], the IC50 in test [1] is 1 to 5 µM; in test [2], less than 500 nM.

For `Cc1cc(C(C)Nc2ccc(Cl)nc2C(=O)O)c2oc(-c3nn(C)c4ccccc34)cc(=O)c2c1` (single isomer, unassigned) [Example 177, 6-Chloro-3-[1-[6-methyl-2-(1-methylindazol-3-yl)-4-oxo-chromen-8-yl]ethylamino]pyridine-2-carboxylic acid], the figures for the IC50 in test [1] and in test [2] were less than 0.5 µM and less than 500 nM, respectively.

Regarding `Cc1cc(C(C)Nc2ccccc2C(=O)O)c2oc(-n3cnc4ccccc43)cc(=O)c2c1` (single isomer, unassigned) [Example 84, 2-[1-[2-(Benzimidazol-1-yl)-6-methyl-4-oxo-chromen-8-yl]ethylamino]benzoic acid], the results for the IC50 in test [1] and in test [2] were 5 to 10 µM and less than 500 nM, respectively.

Regarding `Cc1cn2cc(-c3oc4c(C(C)Nc5ccccc5C(=O)O)cc(F)cc4c(=O)c3C)ccc2n1` (single isomer, unassigned) [Example 124, 2-[1-[6-Fluoro-3-methyl-2-(2-methylimidazo[1,2-a]pyridin-6-yl)-4-oxo-chromen-8-yl]ethylamino]benzoic acid], the IC50 in test [1] is 0.5 to 1 µM; in test [2], less than 500 nM.
